Assay results as given in patent publication US20260137819A1 (Radionetics Oncology, Inc., priority 2022, published 2026).

Molecular target: T1, human follicle-stimulating hormone receptor (FSHR) (Homo sapiens, UniProt P23945)
T1 construct: host or cells: CHO-K1
T1 sequence (P23945 18-695): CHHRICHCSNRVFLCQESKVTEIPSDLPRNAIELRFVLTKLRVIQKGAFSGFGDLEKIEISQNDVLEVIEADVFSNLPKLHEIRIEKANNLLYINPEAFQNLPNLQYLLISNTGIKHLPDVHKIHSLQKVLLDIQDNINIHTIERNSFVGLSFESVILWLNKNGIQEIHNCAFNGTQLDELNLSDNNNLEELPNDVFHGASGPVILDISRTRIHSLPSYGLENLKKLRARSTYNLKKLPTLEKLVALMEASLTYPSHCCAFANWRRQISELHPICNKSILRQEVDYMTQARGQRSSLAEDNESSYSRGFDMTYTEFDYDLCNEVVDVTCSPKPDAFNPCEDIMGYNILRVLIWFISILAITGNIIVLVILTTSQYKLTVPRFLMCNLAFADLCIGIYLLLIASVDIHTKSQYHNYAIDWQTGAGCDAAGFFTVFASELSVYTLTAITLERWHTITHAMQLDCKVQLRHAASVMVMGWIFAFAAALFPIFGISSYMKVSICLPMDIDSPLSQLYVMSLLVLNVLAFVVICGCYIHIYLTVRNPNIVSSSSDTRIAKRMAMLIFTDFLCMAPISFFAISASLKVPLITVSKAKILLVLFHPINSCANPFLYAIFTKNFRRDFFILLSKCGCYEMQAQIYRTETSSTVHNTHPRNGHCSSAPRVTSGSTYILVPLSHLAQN
Test: Measurement of agonist cAMP production by activation of human FSHR
Assay type: cell-based
Conditions: CHO-K1 human FSHR cells, 30 minutes at 37° C., HTRF cAMP kit; read-out: hFSHR Agonist cAMP EC50
Outline: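 cAMP output was measured by HTRF after 30 min at 37 °C agonist exposure (0–10,000 nM final) in stably FSHR-transfected CHO-K1 cells. Lysate cAMP was read off a standard curve and fitted to obtain half-maximal EC50.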

EC50, 10 to 100 nM:
COc1cc2c(cc1-c1cncc(NC(=O)CCOCCOCCNC(=O)[C@H]3O[C@@H](CNC(=O)CN4CCN(CC(=O)O)CCN(CC(=O)O)CCN(CC(=O)O)CC4)[C@H](O)[C@@H](O)[C@H]3O)c1)-c1c(c(C(=O)N3CCOCC3(C)C)nn1-c1cc(Cl)cc(Cl)c1)CO2 [Compound 54A, indium (III) 2,2′,2″-(10-(2-((((2S,3R,4R,5R,6S)-6-((2-(2-(3-((5-(1-(3,5-dichlorophenyl)-3-(3,3-dimethylmorpholine-4-carbonyl)-7-methoxy-1,4-dihydrochromeno[4,3-c]pyrazol-8-yl)pyridin-3-yl)amino)-3-oxopropoxy)ethoxy)ethyl)carbamoyl)-3,4,5-trihydroxytetrahydro-2H-pyran-2-yl)methyl)amino)-2-oxoethyl)-1,4,7,10-tetraazacyclododecane-1,4,7-triyl)triacetate]
COc1cc2c(cc1-c1cncc(NC(=O)CNC(=O)CC[C@@H](NC(=O)CNC(=O)CN3CCN(CC(=O)O)CCN(CC(=O)O)CCN(CC(=O)O)CC3)C(=O)O)c1)-c1c(c(C(=O)N3CCOCC3(C)C)nn1-c1cc(Cl)cc(Cl)c1)CO2 [Compound 55, (R)-2,2′,2″-(10-(2-((2-((1-carboxy-4-((2-((5-(1-(3,5-dichlorophenyl)-3-(3,3-dimethylmorpholine-4-carbonyl)-7-methoxy-1,4-dihydrochromeno[4,3-c]pyrazol-8-yl)pyridin-3-yl)amino)-2-oxoethyl)amino)-4-oxobutyl)amino)-2-oxoethyl)amino)-2-oxoethyl)-1,4,7,10-tetraazacyclododecane-1,4,7-triyl)triacetic acid--2,2,2-trifluoroacetic acid (1/1)]
COc1cc2c(cc1-c1cncc(NC(=O)CNC(=O)[C@H](CCC(=O)NC[C@H](O)[C@@H](O)[C@H](O)[C@H](O)CO)NC(=O)CN3CCN(CC(=O)O)CCN(CC(=O)O)CCN(CC(=O)O)CC3)c1)-c1c(c(C(=O)N3CCOCC3(C)C)nn1-c1cc(Cl)cc(Cl)c1)CO2 [Compound 56, 2,2′,2″-(10-(2-(((S)-1-((2-((5-(1-(3,5-dichlorophenyl)-3-(3,3-dimethylmorpholine-4-carbonyl)-7-methoxy-1,4-dihydrochromeno[4,3-c]pyrazol-8-yl)pyridin-3-yl)amino)-2-oxoethyl)amino)-1,5-dioxo-5-(((2S,3R,4R,5R)-2,3,4,5,6-pentahydroxyhexyl)amino)pentan-2-yl)amino)-2-oxoethyl)-1,4,7,10-tetraazacyclododecane-1,4,7-triyl)triacetic acid--2,2,2-trifluoroacetic acid (1/1)]
COc1cc2c(cc1-c1cncc(NC(=O)CCCNC(=O)CCOCCNC(=O)CN3CCN(CC(=O)O)CCN(CC(=O)O)CCN(CC(=O)O)CC3)c1)-c1c(c(C(=O)N3CCOCC3(C)C)nn1-c1cc(F)cc(F)c1)CO2 [Compound 57, 2,2′,2″-(10-(2-((2-(3-((4-((5-(1-(3,5-difluorophenyl)-3-(3,3-dimethylmorpholine-4-carbonyl)-7-methoxy-1,4-dihydrochromeno[4,3-c]pyrazol-8-yl)pyridin-3-yl)amino)-4-oxobutyl)amino)-3-oxopropoxy)ethyl)amino)-2-oxoethyl)-1,4,7,10-tetraazacyclododecane-1,4,7-triyl)triacetic acid--2,2,2-trifluoroacetic acid (1/1)]
COc1cc2c(cc1-c1cncc(NC(=O)CCCNC(=O)[C@H](N)CCCCNC(=O)CN3CCN(CC(=O)O)CCN(CC(=O)O)CCN(CC(=O)O)CC3)c1)-c1c(c(C(=O)N3CCOCC3(C)C)nn1-c1cc(F)cc(F)c1)CO2 [Compound 58, (R)-2,2′,2″-(10-(2-((5-amino-6-((4-((5-(1-(3,5-difluorophenyl)-3-(3,3-dimethylmorpholine-4-carbonyl)-7-methoxy-1,4-dihydrochromeno[4,3-c]pyrazol-8-yl)pyridin-3-yl)amino)-4-oxobutyl)amino)-6-oxohexyl)amino)-2-oxoethyl)-1,4,7,10-tetraazacyclododecane-1,4,7-triyl)triacetic acid--2,2,2-trifluoroacetic acid (1/1)]
